According to PMC9854539, “QSAR Studies, Molecular Docking, Molecular Dynamics, Synthesis, and Biological Evaluation of Novel Quinolinone-Based Thiosemicarbazones against Mycobacterium tuberculosis” (Antibiotics, 2022):
Values after ≈ are worked out from the molar mass of the structure shown.

How the values were obtained:
[1] = test system: M. tuberculosis H37RV strain; design: method as in earlier work; settings: cited from earlier work; for MIC: observed activity of QSAR data set; for MIC exp (log (1/molarMIC)): pMIC from literature MIC in mol/L
[2] = test system: M. tuberculosis ATCC 35838; test: Spot culture growth inhibition assay (SPOTi), MIC; format: cell-based, Mycobacterium tuberculosis; settings: IC50 Vero / MIC M. tuberculosis ATCC 35838 RR
M. tuberculosis Orphan = test: Spot culture growth inhibition assay (SPOTi), MIC; format: cell-based, Mycobacterium tuberculosis; settings: IC50 Vero / MIC M. tuberculosis orphan
[3] = test system: M. tuberculosis ATCC 35822; test: Spot culture growth inhibition assay (SPOTi), MIC; format: cell-based, Mycobacterium tuberculosis; settings: IC50 Vero / MIC M. tuberculosis ATCC 35822 RI
MTT cytotoxicity assay = settings: African green monkey
M. tuberculosis H37Rv = test: Spot culture growth inhibition assay (SPOTi), MIC; format: cell-based, Mycobacterium tuberculosis; settings: for Selectivity Index (SI) (SI = IC50/MIC) b: IC50 Vero / MIC M. tuberculosis H37Rv; for MIC: Mycobacterium tuberculosis, H37RV, SPOTi, 2–3 weeks at 37 °C
M. bovis BCG = test: microbe, parasite or virus in culture; format: cell-based; settings: for Selectivity Index (SI) (SI = IC50/MIC) a: IC50 Vero / MIC M. bovis BCG; for MIC: Mycobacterium tuberculosis variant bovis BCG, BCG, read-out: MIC M. bovis BCG
M. tuberculosis Haarlem = test: Spot culture growth inhibition assay (SPOTi), MIC; format: cell-based, Mycobacterium tuberculosis; settings: IC50 Vero / MIC M. tuberculosis Haarlem
M. tuberculosis LAM 9 = test: Spot culture growth inhibition assay (SPOTi), MIC; format: cell-based, Mycobacterium tuberculosis; settings: IC50 Vero / MIC M. tuberculosis LAM 9 (sit 42)
M. tuberculosis Beijing = test: Spot culture growth inhibition assay (SPOTi), MIC; format: cell-based, Mycobacterium tuberculosis; settings: IC50 Vero / MIC M. tuberculosis Beijing

Row | Structure (SMILES) | MIC [1] [µM] | MIC exp (log (1/molarMIC)) [1] | other results
1 | Cc1nc2ccccc2c(-c2ccccc2)c1C(=O)c1ccccc1 [Compound 27] | 19.33 (≈ 6.25 µg/mL) | 4.71 | 
2 | c1ccc(-c2cc(Cc3ccco3)nc3ccccc23)cc1 [Compound 34] | 21.75 (≈ 6.21 µg/mL) | 4.66 | 
3 | c1ccc(-c2c3c(nc4ccccc24)CCCCC3)cc1 [Compound 29] | 45.73 (≈ 12.5 µg/mL) | 4.34 | 
4 | c1ccc(-c2cc(-c3ccccc3)c3ccccc3n2)cc1 [Compound 33] | 11.11 (≈ 3.13 µg/mL) | 4.95 | 
5 | Cc1nc2ccccc2c(-c2ccccc2)c1C(=O)Nc1ccc(F)cc1 [Compound 36] | 16.76 (≈ 5.97 µg/mL) | 4.78 | 
6 | COc1ccc(NC(=O)c2c(C)nc3ccccc3c2-c2ccccc2)cc1 [Compound 35] | 8.48 (≈ 3.12 µg/mL) | 5.07 | 
7 | O=C(NNc1ccnc2cc(Cl)ccc12)c1ccccc1N=CC=Cc1ccccc1 [Compound 26] | 3.12 (≈ 1.33 µg/mL) | 5.51 | 
8 | CC(/C=C/c1cc2cc(C)ccc2[nH]c1=O)=N\NC(N)=S [Compound 11b, (E)-2-((E)-4-(6-Methyl-2-oxo-1,2-dihydroquinolin-3-yl)but-3-en-2-ylidene)hydrazine-1-carbothioamide] |  |  | Selectivity Index (SI) (SI = IC50/MIC) g [2]: 1.06; Selectivity Index (SI) (SI = IC50/MIC) c (M. tuberculosis Orphan): 0.11; Selectivity Index (SI) (SI = IC50/MIC) h [3]: 1.06; IC50 at 48 h (MTT cytotoxicity assay): 3.53 µM; Selectivity Index (SI) (SI = IC50/MIC) b (M. tuberculosis H37Rv): 22.06; MIC (M. tuberculosis H37Rv): 0.16 µM (≈ 0.0481 µg/mL); Selectivity Index (SI) (SI = IC50/MIC) a (M. bovis BCG): 22.06; MIC (M. bovis BCG): 0.16 µM (≈ 0.0481 µg/mL); Selectivity Index (SI) (SI = IC50/MIC) f (M. tuberculosis Haarlem): 1.06; Selectivity Index (SI) (SI = IC50/MIC) e (M. tuberculosis LAM 9): 0.21; Selectivity Index (SI) (SI = IC50/MIC) d (M. tuberculosis Beijing): 2.13
9 | COc1ccc(C=Nc2ccccc2C(=O)NNc2ccnc3cc(Cl)ccc23)cc1OC [Compound 23] | 6.25 (≈ 2.88 µg/mL) | 5.20 | 
10 | Cc1nc2ccccc2c(-c2ccccc2)c1C(=O)Nc1ccc(Br)cc1 [Compound 38] | 30.92 (≈ 12.9 µg/mL) | 4.51 | 
11 | Cc1nc2ccccc2c(-c2ccccc2)c1C(=O)Nc1ccc(Cl)cc1 [Compound 37] | 17.54 (≈ 6.54 µg/mL) | 4.76 | 
12 | CC(=O)c1c(C)nc2ccc(Cl)cc2c1-c1ccccc1 [Compound 28] | 10.57 (≈ 3.13 µg/mL) | 4.98 | 
13 | CC(/C=C/c1cc2cccc(C)c2[nH]c1=O)=N\NC(N)=S [Compound 11c, (E)-2-((E)-4-(8-Methyl-2-oxo-1,2-dihydroquinolin-3-yl)but-3-en-2-ylidene)hydrazine-1-carbothioamide] |  |  | Selectivity Index (SI) (SI = IC50/MIC) g [2]: 1.14; Selectivity Index (SI) (SI = IC50/MIC) c (M. tuberculosis Orphan): 0.03; Selectivity Index (SI) (SI = IC50/MIC) h [3]: 5.76; IC50 at 48 h (MTT cytotoxicity assay): 1.9 µM; Selectivity Index (SI) (SI = IC50/MIC) b (M. tuberculosis H37Rv): 11.88; MIC (M. tuberculosis H37Rv): 0.16 µM (≈ 0.0481 µg/mL); Selectivity Index (SI) (SI = IC50/MIC) a (M. bovis BCG): 5.75; MIC (M. bovis BCG): 0.33 µM (≈ 0.0991 µg/mL); Selectivity Index (SI) (SI = IC50/MIC) f (M. tuberculosis Haarlem): 0.06; Selectivity Index (SI) (SI = IC50/MIC) e (M. tuberculosis LAM 9): 0.58; melting point: 241 °C; Selectivity Index (SI) (SI = IC50/MIC) d (M. tuberculosis Beijing): 5.76
14 | O=[N+]([O-])c1ccc(N2CCN(c3ccnc4cc(Cl)ccc34)CC2)c2nonc12 [Compound 19] | 7.26 (≈ 2.98 µg/mL) | 5.13 | 
15 | CC1CC(=O)c2c(nc3ccccc3c2-c2ccccc2)C1 (stereo not shown) [Compound 30] | 21.75 (≈ 6.25 µg/mL) | 4.66 | 
